# Measured values taken from US20060281763A1, “Carboxamide inhibitors of TGFbeta” (priority 2005, published 2006).
# Target: T1, TGFβ R1 (Homo sapiens, UniProt P36897)
# T1 sequence (P36897 34-503): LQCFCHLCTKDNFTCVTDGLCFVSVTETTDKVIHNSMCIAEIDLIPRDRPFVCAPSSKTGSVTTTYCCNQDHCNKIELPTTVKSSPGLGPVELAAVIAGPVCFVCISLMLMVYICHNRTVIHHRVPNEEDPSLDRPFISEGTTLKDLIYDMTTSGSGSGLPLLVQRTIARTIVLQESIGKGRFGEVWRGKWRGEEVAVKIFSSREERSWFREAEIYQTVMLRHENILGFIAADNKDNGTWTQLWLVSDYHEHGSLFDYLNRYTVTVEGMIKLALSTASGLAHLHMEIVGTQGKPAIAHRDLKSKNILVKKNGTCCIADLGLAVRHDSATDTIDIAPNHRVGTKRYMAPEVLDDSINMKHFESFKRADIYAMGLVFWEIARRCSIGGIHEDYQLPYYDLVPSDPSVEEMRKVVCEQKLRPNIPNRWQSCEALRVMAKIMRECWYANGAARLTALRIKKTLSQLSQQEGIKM
# Assay: TGFβ R1 autophosphorylation protocol (33P-ATP, phosphocellulose filter plate)
# Type: biochemical
# Conditions: 10 uM ATP, 170 nM TGFβ R1, 20 minutes at room temperature, read-out: IC50 for Kinase Inhibition
# How it was run: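 Radiometric autophosphorylation: 170 nM enzyme with compound (≤1% DMSO), 10 uM ATP plus γ-33P-ATP, […] in 20 mM MOPS pH 7, 20 min at room temperature. Reaction stopped on phosphocellulose filter, washed with H3PO4 and ethanol, counted by scintillation.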
row,SMILES,IC50
1,CN/C(=N\C#N)NCCCNC(=O)c1cnccc1Nc1nc(-c2cc(Cl)ccc2F)ncc1OC [Compound 41],50 nM
2,"COc1cnc(-c2cc(Cl)ccc2F)nc1Nc1ccncc1C(=O)NCCCNCCOC1O[C@H](CO)[C@@H](O)[C@H](O)[C@H]1O (some centres unmarked) [Compound 134, 4-[2-(5-Chloro-2-fluoro-phenyl)-5-methoxy-pyrimidin-4-ylamino]-N-{3-[2-(3,4,5-trihydroxy-6-hydroxymethyl-tetrahydro-pyran-2-yloxy)-ethylamino]-propyl}-nicotinamide]",12 nM
3,"COc1cnc(-c2cc(Cl)ccc2F)nc1Nc1ccncc1C(=O)NCCCNCCOC1O[C@H](COC(C)=O)[C@@H](OC(C)=O)[C@H](OC(C)=O)[C@H]1OC(C)=O (stereo in doubt) [Compound 132, Acetic acid 3,4,5-triacetoxy-6-{2-[3-({4-[2-(5-chloro-2-fluoro-phenyl)-5-methoxy-pyrimidin-4-ylamino]-pyridine-3-carbonyl)-amino)-propylamino]-ethoxy}-tetrahydro-pyran-2-ylmethyl ester]",32 nM
4,"COc1cnc(-c2cc(Cl)ccc2F)nc1Nc1ccncc1C(=O)NCCNCCC1O[C@H](CO)[C@@H](O)[C@H](O)[C@H]1O (some centres unmarked) [Compound 136, 4-[2-(5-Chloro-2-fluoro-phenyl)-5-methoxy-pyrimidin-4-ylamino]-N-{2-[2-(3,4,5-trihydroxy-6-hydroxymethyl-tetrahydro-pyran-2-yl)-ethylamino]-ethyl}-nicotinamide]",7 nM
5,COc1cnc(-c2cc(Cl)ccc2F)nc1Nc1ccncc1C(=O)NCCCNC(=O)CC1O[C@H](CO)[C@@H](O)[C@H](O)[C@H]1O (some centres unmarked) [Compound 146],102 nM
6,"COc1cnc(-c2cc(Cl)ccc2F)nc1Nc1ccncc1C(=O)NCCNCC(F)(F)C(F)(F)F [Compound 102, 4-[2-(5-Chloro-2-fluoro-phenyl)-5-methoxy-pyrimidin-4-ylamino]-N-[2-(2,2,3,3,3-pentafluoro-propylamino)-ethyl]-nicotinamide]",70 nM
7,"COc1cnc(-c2cc(Cl)ccc2F)nc1Nc1ccncc1C(=O)NC1CCN(CCC2O[C@H](CO)[C@@H](O)[C@H](O)[C@@H]2O)CC1 (some centres unmarked) [Compound 152, 4-[2-(5-Chloro-2-fluoro-phenyl)-5-methoxy-pyrimidin-4-ylamino]-N-{1-[2-(3,4,5-trihydroxy-6-hydroxymethyl-tetrahydro-pyran-2-yl)-ethyl]-piperidin-4-yl}-nicotinamide]",28 nM

# The remaining lines, values ahead:
row,IC50,SMILES
1,170 nM,"COc1cnc(-c2cc(Cl)ccc2F)nc1Nc1ccncc1C(=O)NCCCNC(=O)C(C)C [Compound 95, 4-[2-(5-Chloro-2-fluoro-phenyl)-5-methoxy-pyrimidin-4-ylamino]-N-(3-isobutylylamino-propyl)-nicotinamide]"
2,10 nM,"CC(C)c1cnc(-c2cc(Cl)ccc2F)nc1Nc1ccncc1C(=O)NC1(CO)CC1 [Compound 150, 4-[2-(5-Chloro-2-fluoro-phenyl)-5-isopropyl-pyrimidin-4-ylamino]-N-(1-hydroxymethyl-cyclopropyl)-nicotinamide]"
3,6570 nM,"COc1cnc(-c2cc(Cl)ccc2F)nc1Nc1ccncc1C(=O)N1CCN(C)CC1 [Compound 118, {4-[2-(5-Chloro-2-fluoro-phenyl)-5-methoxy-pyrimidin-4-ylamino]-pyridin-3-yl}-(4-methyl-piperazin-1-yl)-methanone]"
4,110 nM,CCNC(=O)NCCCNC(=O)c1cnccc1Nc1nc(-c2cc(Cl)ccc2F)ncc1OC [Compound 75]
5,38 nM,"COc1cnc(-c2cc(Cl)ccc2F)nc1Nc1ccncc1C(=O)NCC(C)(C)N [Compound 130, N-(2-Amino-2-methyl-propyl)-4-[2-(5-chloro-2-fluoro-phenyl)-5-methoxy-pyrimidin-4-ylamino]-nicotioamide]"
6,560 nM,"COc1cnc(-c2cc(Cl)ccc2F)nc1Nc1ccncc1C(=O)NCCNC(=O)OC(C)(C)C [Compound 32, [2-({4-[2-(5-Chloro-2-fluoro-phenyl)-5-methoxy-pyrimidin-4-ylamino]-pyridine-3-carbonyl}-amino)-ethyl]-carbamic acid tert-butyl ester]"
7,8 nM,"COc1cnc(-c2cc(Cl)ccc2F)nc1Nc1ccncc1C(=O)N[C@H]1CCNC1 [Compound 128, 4-[2-(5-Chloro-2-fluoro-phenyl)-5-methoxy-pyrimidin-4-ylamino]-N-pyrrolidin-3-yl-nicotinamide]"
8,10 nM,"COc1cnc(-c2cc(Cl)ccc2F)nc1Nc1ccncc1C(=O)NCCNCCO [Compound 6, 4-[2-(5-Chloro-2-fluoro-phenyl)-5-methoxy-pyrimidin-4-ylamino]-N-[2-(2-hydroxy-ethylamino)-ethyl]-nicotinamide]"
9,30 nM,"CNC(=O)c1cnccc1Nc1nc(-c2cc(Cl)ccc2F)ncc1Br [Compound 93, 4-[5-Bromo-2-(5-chloro-2-fluoro-phenyl)-pyrimidin-4-ylamino]-N-methyl-nicotinamide]"
10,6780 nM,"COc1cnc(-c2cc(Cl)ccc2F)nc1Nc1ccncc1C(=O)N1CCNCC1 [Compound 117, {4-[2-(5-Chloro-2-fluoro-phenyl)-5-methoxy-pyrimidin-4-ylamino]-pyridin-3-yl}-piperazin-1-yl-methanone]"

# Same assay, conditions: 10 uM ATP, 170 nM TGFβ R1, room temperature 20 minutes, read-out: IC50 for Kinase Inhibition
row,SMILES,IC50
1,"COc1cnc(-c2cc(Cl)ccc2F)nc1Nc1ccncc1C(=O)NCCNCC[C@@H]1OC[C@@H](O)[C@H](O)[C@H]1O [Compound 170, 4-[2-(5-Chloro-2-fluoro-phenyl)-5-methoxy-pyrimidin-4-ylamino]-N-{2-[2-(3,4,5-trihydroxy-tetrahydro-pyran-2-yl)-ethylamino]-ethyl}-nicotinamide]",6 nM
2,"CCCN(CCC)C(=O)C(=O)c1cnccc1Nc1nc(-c2cc(Cl)ccc2F)ncc1OC [Compound 240, 2-{4-[2-(5-Chloro-2-fluoro-phenyl)-5-methoxy-pyrimidin-4-ylamino]-pyridin-3-yl}-2-oxo-N,N-dipropyl-acetamide]",3080 nM
3,"CC(C)c1cnc(-c2cc(Cl)ccc2F)nc1Nc1ccncc1C(=O)NCCCN1CCC[C@H]1C(=O)N1CCCC1 [Compound 190, 4-[2-(5-Chloro-2-fluoro-phenyl)-5-isopropyl-pyrimidin-4-ylamino]-N-{3-[2-(pyrrolidine-1-carbonyl)-pyrrolidine-1-yl]-propyl}-nicotinamide]",9 nM
4,"CC(C)OCCCNC(=O)c1cnccc1Nc1nc(-c2cc(Cl)ccc2F)ncc1C(C)C [Compound 189, 4-[2-(5-Chloro-2-fluoro-phenyl)-5-isopropyl-pyrimidin-4-ylamino]-N-(3-isopropoxy-propyl)-nicotinamide]",74 nM
5,"CC(C)c1cnc(-c2cc(Cl)ccc2F)nc1Nc1ccncc1C(=O)N[C@H]1CCC[C@@H]1O (stereo in doubt) [Compound 235, 4-[2-(5-Chloro-2-fluoro-phenyl)-5-isopropyl-pyrimidin-4-ylamino]-N-(2-hydroxy-cyclopentyl)-nicotinamide]",40 nM
6,"CC(C)c1cnc(-c2cc(Cl)ccc2F)nc1Nc1ccncc1C(=O)N1CCN[C@H](C)C1 [Compound 228, {4-[2-(5-Chloro-2-fluoro-phenyl)-5-isopropyl-pyrimidin-4-ylamino]-pyridin-3-yl}-(3-methyl-piperazin-1-yl)-methanone]",2780 nM
7,"COC(=O)C1CCCN1CCCNC(=O)c1cnccc1Nc1nc(-c2cc(Cl)ccc2F)ncc1OC (centres unmarked) [Compound 175, 1-[3-({4-[2-(5-Chloro-2-fluoro-phenyl)-5-methoxy-pyrimidin-4-ylamino]-pyridine-3-carbonyl}-amino)-propyl]-pyrrolidine-2-carboxylic acid methyl ester]",31 nM
8,"CNC(=O)[C@H]1CCCN1CCCNC(=O)c1cnccc1Nc1nc(-c2cc(Cl)ccc2F)ncc1C(C)C [Compound 182, 4-[2-(5-Chloro-2-fluoro-phenyl)-5-isopropyl-pyrimidin-4-ylamino]-N-[3-(2-methylcarbamoyl-pyrrolidin-1-yl)-propyl]-nicotinamide]",11 nM

# Other lines, results leading:
row,IC50,SMILES
1,33 nM,"COc1cnc(-c2cc(Cl)ccc2F)nc1Nc1ccncc1C(=O)NCCCOCC(O)CO (centres unmarked) [Compound 163, 4-[2-(5-Chloro-2-fluoro-phenyl)-5-methoxy-pyrimidin-4-ylamino]-N-[3-(2,3-dihydroxy-propoxy)-propyl]-nicotinamide]"
2,5 nM,"COc1cnc(-c2cc(Cl)ccc2F)nc1Nc1ccncc1C(=O)NCCCN1CCC[C@@H]1C(N)=O [Compound 166, N-[3-(2-Carbamoyl-pyrrolidin-1-yl)-propyl]-4-[2-(5-chloro-2-fluoro-phenyl)-5-methoxy-pyrimidin-4-ylamino]-nicotinamide]"
3,42 nM,"COc1cnc(-c2cc(Cl)ccc2F)nc1Nc1ccncc1C(=O)NC1(CO)CC1 [Compound 162, 4-[2-(5-Chloro-2-fluoro-phenyl)-5-methoxy-pyrimidin-4-ylamino]-N-(1-hydroxymethyl-cyclopropyl)-nicotinamide]"
4,1780 nM,"COc1cnc(-c2cc(Cl)ccc2F)nc1Nc1ccncc1C(=O)N1CCC[C@@H](O)C1 [Compound 218, {4-[2-(5-Chloro-2-fluoro-phenyl)-5-methoxy-pyrimidin-4-ylamino]-pyridin-3-yl}-(3-hydroxy-piperidin-1-yl)-methanone]"
